# From PubChem BioAssay AID2060496 (Molecular Pharmacology Branch, DTP, NCI, 2025)
# System: 276233-004-R-J1-PDC complex spheroid viability
# Assay: Anticancer human tumor 276233-004-R-J1-PDC patient-derived colon adenocarcinoma cell line growth inhibition [GQUAD]
# Settings: for IC50: curve of first compound; for viability, T/C: stronger effect = lower value
# In short: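 Tumor cells were grown as complex spheroids with HUVEC endothelial cells and mesenchymal stem cells as stroma. G-quadruplex stabilizers were combined with targeted agents over half-log dilutions from near the clinical Cmax, or from 10 microM.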
# [1] = second compound 0.0316 µM, first compound 0.000999 µM
# [2] = second compound 0.0316 µM, first compound 0.00316 µM
# [3] = second compound 0.0316 µM, first compound 0.00999 µM
# [4] = second compound 0.0316 µM, first compound 0.0316 µM
# [5] = second compound 0.0316 µM, first compound 0.0999 µM
# [6] = second compound 0.0316 µM, first compound 0.316 µM
# [7] = second compound 0.1 µM, first compound 0.000999 µM
# [8] = second compound 0.1 µM, first compound 0.00316 µM
# [9] = second compound 0.1 µM, first compound 0.00999 µM
# [10] = second compound 0.1 µM, first compound 0.0316 µM
# [11] = second compound 0.1 µM, first compound 0.0999 µM
# [12] = second compound 0.1 µM, first compound 0.316 µM
# [13] = second compound 0.316 µM, first compound 0.000999 µM
# [14] = second compound 0.316 µM, first compound 0.00316 µM
# [15] = second compound 0.316 µM, first compound 0.00999 µM
# [16] = second compound 0.316 µM, first compound 0.0316 µM
# [17] = second compound 0.316 µM, first compound 0.0999 µM
# [18] = second compound 0.316 µM, first compound 0.316 µM
# [19] = second compound 1 µM, first compound 0.000999 µM
# [20] = second compound 1 µM, first compound 0.00316 µM
# [21] = second compound 1 µM, first compound 0.00999 µM
# [22] = second compound 1 µM, first compound 0.0316 µM
# [23] = second compound 1 µM, first compound 0.0999 µM
# [24] = second compound 1 µM, first compound 0.316 µM
# [25] = second compound 3.16 µM, first compound 0.000999 µM
# [26] = second compound 3.16 µM, first compound 0.00316 µM
# [27] = second compound 3.16 µM, first compound 0.00999 µM
# [28] = second compound 3.16 µM, first compound 0.0316 µM
# [29] = second compound 3.16 µM, first compound 0.0999 µM
# [30] = second compound 3.16 µM, first compound 0.316 µM
# [31] = second compound 10 µM, first compound 0.000999 µM
# [32] = second compound 10 µM, first compound 0.00316 µM
# [33] = second compound 10 µM, first compound 0.00999 µM
# [34] = second compound 10 µM, first compound 0.0316 µM
# [35] = second compound 10 µM, first compound 0.0999 µM
# [36] = second compound 10 µM, first compound 0.316 µM
# 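Also: spheroids exposed to drugs for seven days.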
# 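For viability, T/C in this document: 100% = DMSO vehicle control viability.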
structure (smiles),measurement,setting,value
CC[C@@]1(O)C(=O)OCc2c1cc1n(c2=O)Cc2cc3c(CN(C)C)c(O)ccc3nc2-1 + Cc1[nH]c2ccc(F)cc2c1-c1nc2c3cccnc3c3ncccc3c2[nH]1,IC50,second compound 0.0316 µM,> 316 nM
same,IC50,second compound 0.1 µM,> 316 nM
same,IC50,second compound 0.316 µM,> 316 nM
same,IC50,second compound 1 µM,> 316 nM
same,IC50,second compound 3.16 µM,< 0.999 nM
same,IC50,second compound 10 µM,< 0.999 nM
same,"viability, T/C",[1],83.1%
same,"viability, T/C",[2],76.6%
same,"viability, T/C",[3],80.8%
same,"viability, T/C",[4],89.2%
same,"viability, T/C",[5],92%
same,"viability, T/C",[6],91.5%
same,"viability, T/C",[7],93.4%
same,"viability, T/C",[8],102%
same,"viability, T/C",[9],102%
same,"viability, T/C",[10],87%
same,"viability, T/C",[11],88.2%
same,"viability, T/C",[12],96.9%
same,"viability, T/C",[13],78.7%
same,"viability, T/C",[14],88.4%
same,"viability, T/C",[15],82.7%
same,"viability, T/C",[16],89.6%
same,"viability, T/C",[17],99.6%
same,"viability, T/C",[18],82.8%
same,"viability, T/C",[19],71.2%
same,"viability, T/C",[20],78.4%
same,"viability, T/C",[21],76.2%
same,"viability, T/C",[22],67.9%
same,"viability, T/C",[23],58.2%
same,"viability, T/C",[24],77.7%
same,"viability, T/C",[25],48.4%
same,"viability, T/C",[26],54.4%
same,"viability, T/C",[27],48.5%
same,"viability, T/C",[28],51.6%
same,"viability, T/C",[29],61.9%
same,"viability, T/C",[30],58.3%
same,"viability, T/C",[31],46%
same,"viability, T/C",[32],40.5%
same,"viability, T/C",[33],53.9%
same,"viability, T/C",[34],58%
same,"viability, T/C",[35],50.7%
same,"viability, T/C",[36],46.7%
CCc1c2c(nc3ccc(O)cc13)-c1cc3c(c(=O)n1C2)COC(=O)[C@]3(O)CC + Cc1[nH]c2ccc(F)cc2c1-c1nc2c3cccnc3c3ncccc3c2[nH]1,IC50,second compound 0.0316 µM,> 316 nM
same,IC50,second compound 0.1 µM,> 316 nM
same,IC50,second compound 0.316 µM,> 316 nM
same,IC50,second compound 1 µM,> 316 nM
same,IC50,second compound 3.16 µM,> 316 nM
same,IC50,second compound 10 µM,< 0.999 nM
same,"viability, T/C",[1],104%
same,"viability, T/C",[2],72.7%
same,"viability, T/C",[3],85.2%
same,"viability, T/C",[4],103%
same,"viability, T/C",[5],106%
same,"viability, T/C",[6],94.2%
same,"viability, T/C",[7],76.3%
same,"viability, T/C",[8],89.8%
same,"viability, T/C",[9],79.5%
same,"viability, T/C",[10],97.5%
same,"viability, T/C",[11],111%
same,"viability, T/C",[12],90.4%
same,"viability, T/C",[13],78.8%
same,"viability, T/C",[14],82.6%
same,"viability, T/C",[15],78.1%
same,"viability, T/C",[16],94.1%
same,"viability, T/C",[17],97.2%
same,"viability, T/C",[18],88.1%
same,"viability, T/C",[19],62.8%
same,"viability, T/C",[20],82.7%
same,"viability, T/C",[21],80.5%
same,"viability, T/C",[22],81.6%
same,"viability, T/C",[23],90.1%
same,"viability, T/C",[24],73.5%
same,"viability, T/C",[25],58.7%
same,"viability, T/C",[26],57.3%
same,"viability, T/C",[27],54%
same,"viability, T/C",[28],62.3%
same,"viability, T/C",[29],67.3%
same,"viability, T/C",[30],67.3%
same,"viability, T/C",[31],39.8%
same,"viability, T/C",[32],41.1%
same,"viability, T/C",[33],56.8%
same,"viability, T/C",[34],62.2%
same,"viability, T/C",[35],55.4%
same,"viability, T/C",[36],54.8%
COc1cc(C2c3cc4c(cc3C(OC3OC5COC(C)OC5C(O)C3O)C3COC(=O)C23)OCO4)cc(OC)c1O (stereo unspecified) + Cc1[nH]c2ccc(F)cc2c1-c1nc2c3cccnc3c3ncccc3c2[nH]1,IC50,second compound 0.0316 µM,> 10000 nM
same,IC50,second compound 0.1 µM,> 10000 nM
same,IC50,second compound 0.316 µM,> 10000 nM
same,IC50,second compound 1 µM,> 10000 nM
same,IC50,second compound 3.16 µM,2820 nM
same,IC50,second compound 10 µM,< 31.6 nM
same,"viability, T/C",[4],72.9%
same,"viability, T/C","second compound 0.0316 µM, first compound 0.1 µM",82.7%
same,"viability, T/C",[6],111%
same,"viability, T/C","second compound 0.0316 µM, first compound 1 µM",80.6%
same,"viability, T/C","second compound 0.0316 µM, first compound 3.16 µM",89.2%
same,"viability, T/C","second compound 0.0316 µM, first compound 10 µM",83.7%
same,"viability, T/C",[10],89.9%
same,"viability, T/C","second compound 0.1 µM, first compound 0.1 µM",110%
same,"viability, T/C",[12],84.2%
same,"viability, T/C","second compound 0.1 µM, first compound 1 µM",78.9%
same,"viability, T/C","second compound 0.1 µM, first compound 3.16 µM",83.7%
same,"viability, T/C","second compound 0.1 µM, first compound 10 µM",76.3%
same,"viability, T/C",[16],79.8%
same,"viability, T/C","second compound 0.316 µM, first compound 0.1 µM",79.7%
same,"viability, T/C",[18],85.2%
same,"viability, T/C","second compound 0.316 µM, first compound 1 µM",101%
same,"viability, T/C","second compound 0.316 µM, first compound 3.16 µM",83%
same,"viability, T/C","second compound 0.316 µM, first compound 10 µM",69%
same,"viability, T/C",[22],78.4%
same,"viability, T/C","second compound 1 µM, first compound 0.1 µM",65.1%
same,"viability, T/C",[24],71.4%
same,"viability, T/C","second compound 1 µM, first compound 1 µM",64.9%
same,"viability, T/C","second compound 1 µM, first compound 3.16 µM",73.7%
same,"viability, T/C","second compound 1 µM, first compound 10 µM",64.2%
same,"viability, T/C",[28],53%
same,"viability, T/C","second compound 3.16 µM, first compound 0.1 µM",63.3%
same,"viability, T/C",[30],52%
same,"viability, T/C","second compound 3.16 µM, first compound 1 µM",65.7%
same,"viability, T/C","second compound 3.16 µM, first compound 3.16 µM",47.3%
same,"viability, T/C","second compound 3.16 µM, first compound 10 µM",50.9%
same,"viability, T/C",[34],50.1%
same,"viability, T/C","second compound 10 µM, first compound 0.1 µM",49.6%
same,"viability, T/C",[36],44.2%
same,"viability, T/C","second compound 10 µM, first compound 1 µM",50.9%
same,"viability, T/C","second compound 10 µM, first compound 3.16 µM",41%
same,"viability, T/C","second compound 10 µM, first compound 10 µM",45%
